Laboratory results reported in US20250376473A1, “PRMTS INHIBITOR AND USE THEREOF” (Cytosinlab Therapeutics Co., Ltd., priority 2022, published 2025).
Where two headings read alike, the source gives them in different places.

Tests used:
HCT116 MTAP WT cells = experiment: Proliferation inhibition of HCT116 cells in vitro (CellTiter Glo); format: cell-based; conditions: 6 days, 9 concentrations starting from 30 μM, read-out: Cell proliferation inhibition rate HCT116 MTAP WT IC50 (nm)
Excerpt: (§1) Biological Test Example 2 Proliferation Inhibition of HCT116 and HCT116 MTAP-KO Cells in Vitro
(§2) HCT116 cell line was purchased from the Chinese Academy of Sciences Cell Bank, and the MTAP gene was knocked out by CRISPR/Cas9 technology to obtain HCT116-MTAP-KO cell line.
(§3) McCoy's 5A medium (Gibco, catalog No. 16600082), fetal bovine serum (Gibco, catalog No. 10099141C), penicillin-streptomycin double antibody (Gibco, catalog No. 15140122), pancreatic enzyme (Gibco, catalog No. 25200056), CellTiter Glo assay kit (Promega, catalog No. G7572), 384-well transparent flat-bottomed black walled cell culture plate (Corning, catalog No. 3764), ultra micro sampler (Tecan, catalog No.D300e), Multimode reader (Biotek, catalog No. SynergyHTX)
(§4) 1. Cell culture: HCT116 and HCT116-MTAP-KO cells were cultured in McCoy'5A medium+10% fetal bovine serum+1% penicillin-streptomycin double antibody; to ensure that they were always in the logarithmic growth phase and the cell viability greater than 95%.
(§5) 2. Compound concentration gradient preparation: The compound to be tested was added to a 384-well plate using an ultra micro sampler, starting from 30 μM (HCT116 cells) or 3 μM (HCT116-MTAP-KO cells), and diluted with DMSO at 3 times for a total of 9 concentrations and set up three duplicate wells.
(§6) 3. Treatment of cells with compounds: Trypsin-digested HCT116 or HCT116-MTAP-KO cell suspension was added to the 384-well plates spotted with the compounds to be tested at 40 μL per well, i.e., 100 cells per well, and the final concentration of DMSO was 0.4%. The cell culture plate was incubated at 37° C. in a 5% CO2 incubator for 6 days.
(§7) 4. Detection: 20 μL of CellTiter Glo reagent was added to each well of the cell culture plate and incubated at room temperature for 30 minutes. A multimode reader was used to detect the luminescence signal at […].
(§8) The data was fitted with GraphPad Prism 8.0 software using a four parameter inhibitor-reaction model to obtain the IC50 value (half inhibitory concentration) of the test compounds.

[1] = tested on: HCT116-MTAP-KO cells (HCT116 MTAP null); experiment: Proliferation inhibition of HCT116 MTAP-KO cells in vitro (CellTiter Glo); format: cell-based; conditions: 6 days, 9 concentrations starting from 3 μM, read-out: Cell proliferation inhibition rate HCT116 MTAP null IC50 (nm)
Excerpt: as §1, §2, §3, §4, §5, §6, §7, §8

Compound | IC50 (HCT116 MTAP WT cells; Homo sapiens, HCT-116, 144 h) [µM] | IC50 ([1]; HCT116-MTAP null, 144 h) [µM] | IC50 (HCT116 MTAP WT cells) [µM] | IC50 [1] [µM]
Cc1ncc2c(N)nc3cc(F)c(C(=O)N(Cc4ccc(C(F)(F)F)cn4)C4CCOC4)cc3n12 (stereo not shown) [Example 156] | 1 to 10 | 0.1 to 1 |  | 
CCc1nn(C)cc1N(Cc1ccc(C(F)(F)F)cn1)C(=O)c1cc2c(cc1F)nc(N)c1c(C)ncn12 [Example 184] | < 0.1 | < 0.1 |  | 
Cc1nn(C)cc1N(Cc1ccc(OC2CC2)cn1)C(=O)c1cc2c(cc1F)nc(N)c1cnc(C)n12 [Example 144] | 1 to 10 | < 0.1 |  | 
Cc1nn(C)cc1N(Cc1ccc(OC2CC2)cn1)C(=O)c1cc2c(cc1F)nc(N)c1c(C)ncn12 [Example 161] | < 0.1 | < 0.1 |  | 
COc1ccc(CN(C(=O)c2cc3c(cc2F)nc(N)c2c(C)ncn23)c2cn(C)nc2C)nn1 [Example 197] | 0.1 to 1 | < 0.1 |  | 
Cc1ncc2c(N)nc3cc(F)c(C(=O)N(Cc4ncc(C(F)(F)F)cc4F)c4ccnn4C)cc3n12 [Example 228] | 0.1 to 1 | < 0.1 |  | 
COc1ncccc1N(Cc1ccc(C(F)(F)F)cn1)C(=O)c1cc2c(cc1F)nc(N)c1cnc(C)n12 [Example 145] | 0.1 to 1 | < 0.1 |  | 
Cc1nn(C)cc1N(Cc1ccc(C(F)(F)F)cn1)C(=O)c1cc2c(cc1F)nc(N)c1cnc(C)n12 [Example 109] | 1 to 10 | < 0.1 |  | 
Cc1nn(CC(F)F)cc1N(Cc1ccc(C(F)(F)F)cn1)C(=O)c1cc2c(cc1F)nc(N)c1cnc(C)n12 [Example 173] | 1 to 10 | < 0.1 |  | 
Cc1nn(C)cc1N(Cc1cn2cc(C(F)(F)F)ccc2n1)C(=O)c1cc2c(cc1F)nc(N)c1cnn(C)c12 [Example 204] | 1 to 10 |  |  | 
Cc1ncc2c(N)nc3cc(F)c(C(=O)N(Cc4cnn(C(F)(F)F)c4)c4ccnn4C)cc3n12 [Example 213] |  |  | 1 to 10 | < 0.1
Cc1cccc(-c2ncc(CN(CC(C)C)C(=O)c3ccc4nc(N)c5c(C)ncn5c4c3)[nH]2)n1 [Example 308] | 1 to 10 | 0.1 to 1 |  | 
Cc1ncc2c(N)nc3cc(F)c(C(=O)N(Cc4cnn(C5CCOCC5)c4)c4ccnn4C)cc3n12 [Example 227] | 1 to 10 | 0.1 to 1 |  | 
COCCOc1ccc(CN(C(=O)c2cc3c(cc2F)nc(N)c2cnc(C)n23)c2cn(C)nc2C)nc1 [Example 152] | 1 to 10 | 0.1 to 1 |  | 
Cc1ncc2c(N)nc3cc(F)c(C(=O)N4CCC(c5ccc(C(F)(F)F)cn5)C4)cc3n12 (stereo not shown) [Example 159] | 1 to 10 | 0.1 to 1 |  | 
Cc1ncc2c(N)nc3cc(F)c(C(=O)N(Cc4ccc(C(F)(F)F)cn4)C4CCOCC4)cc3n12 [Example 149] | 1 to 10 | 0.1 to 1 |  | 
Cc1ncc2c(N)nc3cc(F)c(C(=O)N(Cc4ccncn4)c4ccnn4C)cc3n12 [Example 232] | 1 to 10 | 0.1 to 1 |  | 
Cc1ncc2c(N)nc3cc(F)c(C(=O)N(Cc4cnn(C5CC5)c4)c4ccnn4C)cc3n12 [Example 317] | 1 to 10 | < 0.1 |  | 
CCn1cc(N(Cc2ccc(OC3CC3)cn2)C(=O)c2cc3c(cn2)nc(N)c2cnc(C)n23)c(C)n1 [Example 199] | 1 to 10 | < 0.1 |  | 
Cc1c(N(Cc2ccc(C(F)(F)F)cn2)C(=O)c2cc3c(cc2F)nc(N)c2cnc(C)n23)cnn1C [Example 118] | 1 to 10 | < 0.1 |  | 
Cc1ncc2c(N)nc3cc(F)c(C(=O)N(Cc4ccc(C(F)(F)F)cn4)c4cn(C)nc4CO)cc3n12 [Example 133] | 1 to 10 | 0.1 to 1 |  | 
Cc1nn(C)cc1N(Cc1ccc(C(F)(F)F)nn1)C(=O)c1cc2c(cc1F)nc(N)c1cnc(C)n12 [Example 127] | 1 to 10 | 0.1 to 1 |  | 

Compound | IC50 (HCT116 MTAP WT cells; Homo sapiens, HCT-116, 144 h) [µM] | IC50 ([1]; HCT116-MTAP null, 144 h) [µM] | IC50 (HCT116 MTAP WT cells) [µM] | IC50 [1] [µM]
Cc1cc(C)c(N(Cc2ccc(C(F)(F)F)cn2)C(=O)c2cc3c(cc2F)nc(N)c2cnc(C)n23)cn1 [Example 194] | 1 to 10 | < 0.1 |  | 
CCOc1ccc(CN(C(=O)c2cc3c(cc2F)nc(N)c2c(C)ncn23)c2cn(C)nc2C)nc1 [Example 168] | < 0.1 | < 0.1 |  | 
CCn1cc(N(Cc2ccc(OC3CC3)cn2)C(=O)c2cc3c(cc2F)nc(N)c2c(C)ncn23)c(C)n1 [Example 177] | 0.1 to 1 | < 0.1 |  | 
Cc1ncc2c(N)nc3cc(F)c(C(=O)N(Cc4ccc(S(F)(F)(F)(F)F)cc4)c4ccnn4C)cc3n12 [Example 229] | 0.1 to 1 | < 0.1 |  | 
Cc1ncc2c(N)nc3cc(F)c(C(=O)N(Cc4ccc(C(F)(F)F)cn4)c4cn(C)nc4Cl)cc3n12 [Example 175] | 1 to 10 | < 0.1 |  | 
Cc1ncc2c(N)nc3cc(F)c(C(=O)N(Cc4cnn(C5COC5)c4)c4ccnn4C)cc3n12 [Example 231] | 1 to 10 | 0.1 to 1 |  | 
Cc1nn(C)cc1N(Cc1ccc(C(F)(F)F)cn1)C(=O)c1cc2c(cn1)nc(N)c1cnc(C)n12 [Example 183] | 1 to 10 | < 0.1 |  | 
CCOc1ccc(CN(CC)C(=O)c2cc3c(cc2F)nc(N)c2cnc(C)n23)nn1 [Example 102] | 1 to 10 | < 0.1 |  | 
Cc1ncn2c1c(N)nc1cc(F)c(C(=O)N3C(c4ccc(C#N)cn4)COC[C@H]3C)cc12 (stereo partly shown) [Example 108] | 1 to 10 | < 0.1 |  | 
COCCOc1ccc(C2COCC(C)N2C(=O)c2cc3c(cc2F)nc(N)c2c(C)ncn23)nc1 (stereo not shown) [Example 105] | 1 to 10 | < 0.1 |  | 
Cc1ncc2c(N)nc3cc(F)c(C(=O)N(Cc4ccc(C(F)(F)F)cn4)c4cnn(C)n4)cc3n12 [Example 83] | 1 to 10 | < 0.1 |  | 
Cc1nn(C)cc1N(Cc1ccc(OC2CC2)cn1)C(=O)c1cc2c(cn1)nc(N)c1cnc(C)n12 [Example 189] | 0.1 to 1 | < 0.1 |  | 
Cc1ncn2c1c(N)nc1ccc(C(=O)N(CC(C)C)C(C)c3nc(-c4ccccn4)cs3)cc12 (stereo not shown) [Example 299] | 1 to 10 | < 0.1 |  | 
Cc1cccc(-c2csc(CN(CC(C)C)C(=O)c3ccc4nc(N)c5c(C)ncn5c4c3)n2)n1 [Example 312] | 1 to 10 | < 0.1 |  | 
Cc1nn(C)cc1N(Cc1ccc(C(F)(F)F)cn1)C(=O)c1cc2c(cc1F)nc(N)c1c(C)ncn12 [Example 134] | < 0.1 | < 0.1 |  | 
COc1nn(C)cc1N(Cc1ccc(C(F)(F)F)cn1)C(=O)c1cc2c(cc1F)nc(N)c1cnc(C)n12 [Example 138] | 1 to 10 | < 0.1 |  | 
COc1ncc(N(Cc2ccc(C(F)(F)F)cn2)C(=O)c2cc3c(cc2F)nc(N)c2cnc(C)n23)cn1 [Example 148] | 1 to 10 | 0.1 to 1 |  | 
CCN(Cc1ccc(OC2COC2)cn1)C(=O)c1cc2c(cc1F)nc(N)c1cnc(C)n12 [Example 99] | 1 to 10 | 0.1 to 1 |  | 
Cc1ncc2c(N)nc3cc(F)c(C(=O)N(Cc4cn5ccccc5n4)C4CCN(C)C4)cc3n12 (stereo not shown) [Example 65] | 1 to 10 | 1 to 10 |  | 
CCN(Cc1ccc(C(F)(F)F)cn1)C(=O)c1cc2c(cn1)nc(N)c1cnc(C)n12 [Example 9] | 1 to 10 | < 0.1 |  | 
C[C@@H]1COC[C@H](c2cn3ccccc3n2)N1C(=O)c1ccc2nc(N)c3cnn(C)c3c2c1 [Example 416] |  | 0.1 to 1 |  | 
Cn1nccc1N(Cc1cn2cc(C(F)(F)F)ccc2n1)C(=O)c1cc2c(cc1F)nc(N)c1cnn(C)c12 [Example 218] | 1 to 10 |  |  | 
